Test results from patent publication US20130178469A1, “NOVEL ANTIVIRAL AGENTS” (SHANGHAI INSTITUTE OF ORGANIC CHEMISTRY (SIOC), priority 2010, published 2013).
Like-named read-outs stand apart in the source and are kept apart here.

Key:
[1] = test system: HIV-1; experiment: Luciferase Assay with single-round reporter virus (NLXLuc or HIV-Luc); type: cell-based; conditions: Human immunodeficiency virus 1
Text: Infectivity assays using reporter viruses derived from lentiviral vectors capable of a single round of infection were used to determine the activity (EC50) of compounds. The DNA used to generate viruses for infection was the full-length HIV-1 genome which had been envelope-deleted. In addition, a reporter gene (the firefly luciferase gene from Photinus pyralis) was cloned into the nefregion of the HIV backbone for ease of assay readout. […]. Culture supernatants containing VSV-G pseudotyped virions were harvested 64 h post transfection, clarified by centrifugation to remove cell debris, and frozen at −70° C. until use.
293FT cells were plated out at 12000 cells per well in CellView 96-well cell culture plates (Invitrogen) 16 h prior to compound addition. Compounds were preincubated with cells for 4 h at 37° C. prior to the addition of virus sufficient to generate approximately 10000 Luciferase light units (as measured by the Victor Wallace luminometer) upon assaying using the Bright-Glo™ reagent (Promega) according to the manufacturer's instructions at 48 h post infection.
In the tables below, this assay is referred to as NLXLuc or HIV-Luc.

[2] = Bioavailability and pharmacokinetic profile following intravenous and oral administration; type: in vivo, Male Sprague Dawley Rats; conditions: for MRT inf: read-out: MRT(0-∞); for Vd: read-out: Vz
Protocol: (§1) Method: For IV infusion over 10 minutes the compound of Example 3.4 was dissolved in 20% DMSO, 30% PEG400 and 50% Water. For oral (PO) dosing AVX62738 was dissolved in 0.5% benzyl alcohol and 0.4% Tween 80 and 99.1% 0.5% hydroxypropylmethylcellulose. Compounds were dosed IV and then after a one week washout, orally in the same rats. (Body weight: Rat 1: 254.7 g; Rat 2: 253.4 g). Ex-vivo plasma samples were assayed for AVX62738 using an LC-ms method of Lower limit of quantitation. (LLOQ)=2.5 ng/mL.

[3] = Clinical Observation following intravenous and oral administration; type: in vivo, Male Sprague Dawley Rats
Protocol: as §1

[4] = male, Sprague Dawley, rat, plasma, iv, 5 mg/kg, IV 5 mg/kg, Mean
[5] = male, Sprague Dawley, rat, plasma, iv, 5 mg/kg, IV 5 mg/kg, Rat 1
[6] = male, Sprague Dawley, rat, plasma, iv, 5 mg/kg, IV 5 mg/kg, Rat 2
[7] = male, Sprague Dawley, rat, plasma, iv, 5 mg/kg, IV (5 mg/kg), Mean
[8] = male, Sprague Dawley, rat, plasma, iv, 5 mg/kg, IV (5 mg/kg), animal 701
[9] = male, Sprague Dawley, rat, plasma, po, 10 mg/kg, PO 10 mg/kg, Mean
[10] = male, Sprague Dawley, rat, plasma, po, 10 mg/kg, PO 10 mg/kg, Rat 1
[11] = male, Sprague Dawley, rat, plasma, po, 10 mg/kg, PO 10 mg/kg, Rat 2
[12] = male, Sprague Dawley, rat, plasma, po, 10 mg/kg, PO (10 mg/kg), Mean
[13] = male, Sprague Dawley, rat, plasma, po, 10 mg/kg, PO (10 mg/kg), animal 801
[14] = male, Sprague Dawley, rat, plasma, po, 10 mg/kg, PO (10 mg/kg), animal 802
[15] = male, Sprague-Dawley, rat, plasma, iv, 5 mg/kg, IV (5 mg/kg), animal 701
[16] = male, Sprague-Dawley, rat, plasma, iv, 5 mg/kg, IV (5 mg/kg), animal 702

SMILES: CN1CCN(c2cc(N3CCN(C)S3(=O)=O)c3nc(C(=O)NCc4ccc(F)cc4)c(O)c(=O)n3c2)CC1 [Example 3.4, 3-Hydroxy-9-(5-methyl-1,1-dioxo-1,6-[1,2,5]thiadiazolidin-2-yl)-7-(4-methyl-piperazin-1-yl)-4-oxo-4H-pyrido[1,2-a]pyrimidine-2-carboxylic acid 4-fluoro-benzylamide]
- EC50 [1]: 1 to 10 nM
- Plasma Concentration ([2]; IV 5 mg/kg, Rat 1, 24 hr): BLQ (BLQ: Below limit of quantitation)
- Plasma Concentration ([2]; IV 5 mg/kg, Rat 1, Pre-dose): BLQ (BLQ: Below limit of quantitation)
- Plasma Concentration ([2]; IV 5 mg/kg, Rat 2, 24 hr): BLQ (BLQ: Below limit of quantitation)
- Plasma Concentration ([2]; IV 5 mg/kg, Rat 2, Pre-dose): BLQ (BLQ: Below limit of quantitation)
- CLz ([2]; IV (5 mg/kg), Mean): 44.8 mL/min/kg
- t1/2z ([2]; IV (5 mg/kg), Mean): 80.4 min
- CLz ([2]; IV (5 mg/kg), animal 701): 44.8 mL/min/kg
- t1/2z ([2]; IV (5 mg/kg), animal 701): 83.4 min
- CLz ([2]; IV (5 mg/kg), animal 702): 44.8 mL/min/kg
- t1/2z ([2]; IV (5 mg/kg), animal 702): 77.4 min
- Plasma Concentration ([2]; PO 10 mg/kg, Rat 1, Pre-dose): BLQ (BLQ: Below limit of quantitation)
- Plasma Concentration ([2]; PO 10 mg/kg, Rat 2, 6 hr): BLQ (BLQ: Below limit of quantitation)
- Plasma Concentration ([2]; PO 10 mg/kg, Rat 2, 8 hr): BLQ (BLQ: Below limit of quantitation)
- Plasma Concentration ([2]; PO 10 mg/kg, Rat 2, 24 hr): BLQ (BLQ: Below limit of quantitation)
- Plasma Concentration ([2]; PO 10 mg/kg, Rat 2, Pre-dose): BLQ (BLQ: Below limit of quantitation)
- F ([2]; PO (10 mg/kg), Mean): 2.95%
- t1/2z ([2]; PO (10 mg/kg), Mean): 74.4 min
- F ([2]; PO (10 mg/kg), animal 801): 2.39%
- t1/2z ([2]; PO (10 mg/kg), animal 801): 99 min
- F ([2]; PO (10 mg/kg), animal 802): 3.50%
- t1/2z ([2]; PO (10 mg/kg), animal 802): 49.8 min
- concentration at 0.083 hr [2, 4]: 3030 ng/mL
- concentration at 0.25 hr [2, 4]: 2060 ng/mL
- concentration at 0.5 hr [2, 4]: 1140 ng/mL
- concentration at 1 hr [2, 4]: 527 ng/mL
- concentration at 2 hr [2, 4]: 113 ng/mL
- concentration at 4 hr [2, 4]: 19 ng/mL
- concentration at 6 hr ([2]; male, Sprague Dawley, rat, plasma, iv, 5 mg/kg, IV 5 mg/kg, Mean, 6 hr): 6.21 ng/mL
- concentration at 8 h ([2]; male, Sprague Dawley, rat, plasma, iv, 5 mg/kg, IV 5 mg/kg, Mean, 8 hr): 2.41 ng/mL
- concentration at 0.083 hr [2, 5]: 2710 ng/mL
- concentration at 0.25 hr [2, 5]: 1990 ng/mL
- concentration at 0.5 hr [2, 5]: 1210 ng/mL
- concentration at 1 hr [2, 5]: 548 ng/mL
- concentration at 2 hr [2, 5]: 123 ng/mL
- concentration at 4 hr [2, 5]: 19.3 ng/mL
- concentration at 6 hr ([2]; male, Sprague Dawley, rat, plasma, iv, 5 mg/kg, IV 5 mg/kg, Rat 1, 6 hr): 5.44 ng/mL
- concentration at 8 h ([2]; male, Sprague Dawley, rat, plasma, iv, 5 mg/kg, IV 5 mg/kg, Rat 1, 8 hr): 2.64 ng/mL
- concentration at 0.083 hr [2, 6]: 3350 ng/mL
- concentration at 0.25 hr [2, 6]: 2130 ng/mL
- concentration at 0.5 hr [2, 6]: 1060 ng/mL
- concentration at 1 hr [2, 6]: 506 ng/mL
- concentration at 2 hr [2, 6]: 104 ng/mL
- concentration at 4 hr [2, 6]: 18.7 ng/mL
- concentration at 6 hr ([2]; male, Sprague Dawley, rat, plasma, iv, 5 mg/kg, IV 5 mg/kg, Rat 2, 6 hr): 6.97 ng/mL
- concentration at 8 h ([2]; male, Sprague Dawley, rat, plasma, iv, 5 mg/kg, IV 5 mg/kg, Rat 2, 8 hr): 2.19 ng/mL
- AUC(0-inf) [2, 7]: 1860 ng·h/mL
- AUC(0-t) [2, 7]: 1850 ng·h/mL
- Cmax [2, 7]: 3030 ng/mL
- Tmax [2, 7]: 4.8 min
- MRT inf [2, 7]: 39.6 min
- Vd [2, 7]: 5.21 L/kg
- AUC(0-inf) [2, 8]: 1860 ng·h/mL
- AUC(0-t) [2, 8]: 1860 ng·h/mL
- Tmax [2, 8]: 4.8 min
- MRT inf [2, 8]: 40.8 min
- concentration at 0.083 hr [2, 9]: 35.2 ng/mL
- concentration at 0.25 hr [2, 9]: 72.2 ng/mL
- concentration at 0.5 hr [2, 9]: 63.6 ng/mL
- concentration at 1 hr [2, 9]: 39.5 ng/mL
- concentration at 2 hr [2, 9]: 14.1 ng/mL
- concentration at 4 hr [2, 9]: 5.29 ng/mL
- concentration at 6 h ([2]; male, Sprague Dawley, rat, plasma, po, 10 mg/kg, PO 10 mg/kg, Mean, 6 hr): 1.31 ng/mL
- concentration at 0.083 hr [2, 10]: 42.4 ng/mL
- concentration at 0.25 hr [2, 10]: 66.2 ng/mL
- concentration at 0.5 hr [2, 10]: 35.7 ng/mL
- concentration at 1 hr [2, 10]: 20.9 ng/mL
- concentration at 2 hr [2, 10]: 13.8 ng/mL
- concentration at 4 hr [2, 10]: 5.62 ng/mL
- concentration at 6 hr ([2]; male, Sprague Dawley, rat, plasma, po, 10 mg/kg, PO 10 mg/kg, Rat 1, 6 hr): 2.62 ng/mL
- concentration at 8 h ([2]; male, Sprague Dawley, rat, plasma, po, 10 mg/kg, PO 10 mg/kg, Rat 1, 8 hr, not kept for calculation): 148 ng/mL
- concentration at 24 h ([2]; male, Sprague Dawley, rat, plasma, po, 10 mg/kg, PO 10 mg/kg, Rat 1, 24 hr, not kept for calculation): 4.66 ng/mL
- concentration at 0.083 hr [2, 11]: 28.1 ng/mL
- concentration at 0.25 hr [2, 11]: 78.1 ng/mL
- concentration at 0.5 hr [2, 11]: 91.6 ng/mL
- concentration at 1 hr [2, 11]: 58.1 ng/mL
- concentration at 2 hr [2, 11]: 14.3 ng/mL
- concentration at 4 hr [2, 11]: 4.96 ng/mL
- AUC(0-inf) [2, 12]: 110 ng·h/mL
- AUC(0-t) [2, 12]: 103 ng·h/mL
- Cmax [2, 12]: 78.9 ng/mL
- Tmax [2, 12]: 22.8 min
- MRT inf [2, 12]: 97.8 min
- AUC(0-inf) [2, 13]: 89 ng·h/mL
- AUC(0-t) [2, 13]: 82.8 ng·h/mL
- Cmax [2, 13]: 66.2 ng/mL
- Tmax [2, 13]: 15 min
- MRT inf [2, 13]: 122 min
- AUC(0-inf) [2, 14]: 130 ng·h/mL
- AUC(0-t) [2, 14]: 124 ng·h/mL
- Cmax [2, 14]: 91.6 ng/mL
- Tmax [2, 14]: 30 min
- MRT inf [2, 14]: 73.2 min
- Cmax [2, 15]: 2710 ng/mL
- Vd [2, 15]: 5.39 L/kg
- AUC(0-inf) [2, 16]: 1860 ng·h/mL
- AUC(0-t) [2, 16]: 1850 ng·h/mL
- Cmax [2, 16]: 3350 ng/mL
- Tmax [2, 16]: 4.8 min
- MRT inf [2, 16]: 37.8 min
- Vd [2, 16]: 5.02 L/kg
- Clinical Observation ([3]; following intravenous administration (5 mg/kg)): Following intravenous administration, no obvious abnormalities were
- Clinical Observation ([3]; following oral administration (10 mg/kg)): Following oral administration, no obvious abnormalities were observed.
